These are literature values, as cited in article PMC6256996, “Natural products as new antimitotic compounds for anticancer drug development” (Clinics, 2018).

One may read the IC50 as the concentration that gives 50% inhibition.

For data set [1], the system named is HL60. More on the design: method as in doi:10.2174/1570180814666171012162557. Conditions: for SI PBMC/HL-60: cytotoxic selectivity index, IC50 for PBMCs/cancer cell line.
Data set [2] has as its system OVCAR-8. More on the design: method as in doi:10.2174/1570180814666171012162557. The following applies: for SI PBMC/OVCAR-8: cytotoxic selectivity index, IC50 for PBMCs/cancer cell line.
For data set [3], the system named is HCT-8. Details: method as in doi:10.2174/1570180814666171012162557. Conditions: for SI PBMC/HCT-8: cytotoxic selectivity index, IC50 for PBMCs/cancer cell line.
For data set [4], the system named is peripheral blood mononuclear cells (PBMCs). Details: method as in doi:10.2174/1570180814666171012162557. The following applies: 72h of treatment; mean±SEM.
Data set [5] relates to K562 cells. More on the design: method as in PMID 15787450, doi:10.1007/s11418-006-0118-3. Conditions: 48-hour incubation.
Data set [6] concerns HL-60 cells. Details: method as in PMID 16316665. The following applies: 3 hours.
Data set [7] has as its system HL-60 cells. More on the design: method as in PMID 16316665.
For data set [8], the system named is HL-60 cells. Details: method as in PMID 16316665. The following applies: lowest treatment concentration (3.97 μmol.L^-1).

SMILES strings stand for the structures. Read-outs that look alike come from different tables or passages of the source.

Turning to `COc1ccc(/C=C\c2cc(OC)c(OC)c(OC)c2)cc1O` [CA-4, combretastatin A-4, reference compound], the “SI PBMC/HL-60” value in data set [1] (72h of treatment) is 1.45. Besides, in data set [2] (72h of treatment), the “SI PBMC/OVCAR-8” value was 6.40. For the same molecule, in data set [3] (72h of treatment), the “SI PBMC/HCT-8” value was 0.60. For the same molecule, the IC50 in data set [4] was 3.2 nM.
Regarding `COc1cc(C(=O)N/N=C/c2cc3ccccc3s2)cc(OC)c1OC` [LASSBio-1920], the “SI PBMC/HL-60” value in data set [1] (72h of treatment) is 333.30. Further, the IC50 in data set [1] (read-out: IC50 in HL-60 tumor cell line) is 0.3 nM; in data set [2] (read-out: IC50 in OVCAR-8 tumor cell line), 9 nM; in data set [3] (read-out: IC50 in HCT-8 tumor cell line) it was 5 nM; in data set [4], 100 ± 11 nM. The “SI PBMC/OVCAR-8” value in data set [2] (72h of treatment) is given as 11.11. In addition, the “SI PBMC/HCT-8” value in data set [3] (72h of treatment) is 20.0.
For the molecule `COc1cc(C(=O)N/N=C/c2ccccc2)cc(OC)c1OC` [LASSBio-1586], the IC50 in data set [1] (72h of treatment, mean±SEM, read-out: HL60 (mean IC50±SEM)) was 290 ± 1.2 nM; in data set [2] (72h of treatment, mean±SEM, read-out: OVCAR-8 (mean IC50±SEM)) it was 290 ± 40 nM; in data set [3] (72h of treatment, mean±SEM, read-out: HCT-8 (mean IC50±SEM)), 450 ± 81 nM; in data set [4], 1340 ± 65 nM. In addition, the “SI PBMC/HL-60” value in data set [1] (72h of treatment) is reported as 4.60. The “SI PBMC/OVCAR-8” value in data set [2] (72h of treatment) is reported as 4.60. For the same molecule, the “SI PBMC/HCT-8” value in data set [3] (72h of treatment) was 3.0.
`COc1ccc2c(c1)O[C@@H]1c3cc(OC)c(OC)cc3OC[C@H]21` [(+)2,3,9-trimethoxypterocarpan, (+)2,3,9-Trimethoxypterocarpan]: the “IC50, proliferation of K562 cells” value in data set [5] is 0.8 µg/mL. In addition, the “Inhibition of BrdU incorporation during the S phase” value in data set [6] (3.97 μmol.L^-1) is listed as 37%; in data set [6] (7.95 μmol.L^-1), 38%; in data set [6] (15.9 μmol.L^-1), 56%. Moreover, in data set [7] (HL-60 cells permeabilized with Triton X-100, 24-hour treatment, 3.97, 7.95 and 15.9 μmol.L^-1), the “Cells with DNA fragmentation” value is on record as around 50%. Also, the “Cell cycle arrest (DNA content)” value in data set [7] (HL-60 cells, 15.9 μmol.L^-1) is “arrested at the G2/M phase transition”. The Membrane damage entry in data set [7] (HL-60 cells, 24-hour treatment, 3.97, 7.95 and 15.9 μmol.L^-1) is “no significant membrane damage”. Besides, the “HL-60 cell population with depolarized mitochondria” value in data set [8] is given as 38.6%.
